The test system of one data set is Sphaerotheca fuliginea. The experiment in a line: Example A: Sphaerotheca test (cucumber) / preventive. Format: in vivo. To be noted: in vivo.
For data set [1], the system named is Fusarium graminearum. The experiment in a line: microbe, parasite or virus in culture. Format: cell-based. To be noted: for Growth inhibition of Fusarium graminearum in %: at 50 μM.
A further data set relates to Leptosphaeria nodorum. The data set is described as follows: Example C: Leptosphaeria test (wheat) / preventive. In kind it is in vivo. To be noted: in vivo.
In data set [2] the test system is DON/Acetyl-DON production by Fusarium graminearum. The data set is described as follows: microbe, parasite or virus in culture. In kind it is cell-based. To be noted: at 50 μM.
Data set [3] can be described thus: Determination of log P values by HPLC on a reverse phase column (C18), EEC-Directive 79/831 Annex V.A8 (Methods A, B, C). Particulars: for chromatographic logP: reverse phase C18 HPLC column. In kind it is physicochemical. The method, boiled down: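 Three C18 chromatographic methods following EEC-Directive 79/831 Annex V.A8 gave the logP values. Method C (UPLC, 2.1 mm column) ran at 40 °C and 0.8 mL/min with a 3.25 min 10–95% acetonitrile gradient. Methods A and B both ran at 55 °C and 2.0 mL/min, with gradients of 10–95% in 4.25 min and 5–95% in 1.70 min.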

For another data set, the system named is Pyricularia oryzae. Format: in vivo. Particulars: in vivo.
The next data set concerns Pyrenophora teres. The experiment in a line: Example D: Pyrenophora test (barley) / preventive. Format: in vivo. To be noted: in vivo.
The next data set has as its system Uromyces appendiculatus. The experiment in a line: Example B: Uromyces test (beans) / preventive. Format: in vivo. To be noted: in vivo.
The subject of a further data set is Puccinia recondita. The data set is described as follows: Example E: Puccinia test (wheat) / preventive. To be noted: in vivo. In kind it is in vivo.
Data set [4] relates to Fusarium graminearum. Format: in vivo. To be noted: in vivo.
A further data set relates to Septoria tritici. The experiment in a line: Example J: Septoria tritici test (wheat) / preventive. Format: in vivo. To be noted: in vivo.
Data set [5] concerns Fusarium nivale (var. majus). The experiment in a line: Example K: Fusarium nivale (var. majus) test (wheat) / preventive. Format: in vivo. To be noted: 500 ppm of active ingredient, preventive spray, evaluated 5 days after inoculation. The protocol:
After the spray coating has been dried, the plants are slightly injured by using a sandblast and afterwards they are sprayed with a conidia suspension of Fusarium nivale (var. majus).
The test is evaluated 5 days after the inoculation.

The mark [6] stands for this setting: Method B (HPLC, reverse phase C18).
Setting [7] is: Method C (HPLC, reverse phase C18).

Like-named read-outs stand apart in the source and are kept apart here.

`CC(=O)Nc1cc(-c2c(-c3ccc(F)cc3)nn3c2OCC3)ccn1` [Example 1]: the efficacy is given as 75% in the data set with Sphaerotheca fuliginea, 88% in the data set with Leptosphaeria nodorum, 70% with Pyricularia oryzae and 95% in the data set with Pyrenophora teres. Also, in the data set with Fusarium graminearum [1], the “Growth inhibition of Fusarium graminearum in %” value (“Growth inhibition … in %” below) worked out at 90%. In data set [2], the “Inhibition of DON/AcDON in %” value is listed as 98%. Moreover, in [3] (setting [6]), the LogP (as a rule, the decadic logarithm of the partition coefficient of the neutral form, usually between octanol and water) stood at 1.19.
On to `O=C(Nc1cc(-c2c(-c3ccccc3)nn3c2OCCC3)ccn1)C1CC1` [Example 7], for which the efficacy turned out to be 95% with Sphaerotheca fuliginea; 90% in the data set with Leptosphaeria nodorum; 94% with Uromyces appendiculatus; 94% in the data set with Pyricularia oryzae; 95% in the data set on Pyrenophora teres; 100% in the data set on Puccinia recondita. In data set [3] (setting [6]), this molecule registered a LogP of 1.25.
As for `C[C@H](O)C(=O)Nc1cc(-c2c(-c3ccccc3)nn3c2OCCC3)ccn1` [Example 12], the efficacy in the data set on Sphaerotheca fuliginea came to 83%; with Leptosphaeria nodorum, 80%; in the data set with Fusarium graminearum [4], 86%; in the data set on Uromyces appendiculatus, 94%; in the data set with Septoria tritici it was 100%; in the data set with Pyricularia oryzae, 100%. The figures for the efficacy (in data set [5]; with Pyrenophora teres; with Puccinia recondita) were 93%, 100% and 100%, respectively. For the same molecule, the LogP in [3] (setting [6]) amounted to 1.2.
For the molecule `O=C(CC1CC1)Nc1cc(-c2c(-c3ccccc3)nn3c2OCCC3)ccn1` [Example 13], the efficacy with Sphaerotheca fuliginea is recorded as 70%; in the data set on Fusarium graminearum [4], 71%; in the data set on Uromyces appendiculatus, 92%; with Septoria tritici, 100%; with Pyricularia oryzae, 100%; in the data set with Pyrenophora teres, 95%. For the same molecule, in the data set on Puccinia recondita, the efficacy is reported as 95%. Besides, in data set [3] (setting [6]), the LogP is on record as 1.54.
Consider `CC(C(=O)Nc1cc(-c2c(-c3ccccc3)nn3c2OCCC3)ccn1)c1ccc(F)cc1` (centres unmarked) [Example 18], for which the efficacy with Sphaerotheca fuliginea worked out at 93%; in the data set on Leptosphaeria nodorum, 90%; in the data set on Uromyces appendiculatus, 94%; in the data set with Pyricularia oryzae, 94%; in the data set on Pyrenophora teres, 95%; with Puccinia recondita, 95%. Besides, the LogP in [3] (setting [6]) stood at 2.27.
Take `CC(C)(C)CC(=O)Nc1cc(-c2c(-c3ccccc3)nn3c2OCCC3)ccn1` [Example 20]: the efficacy in the data set on Sphaerotheca fuliginea is 100%; in the data set with Leptosphaeria nodorum it was 95%; with Uromyces appendiculatus it was 97%; in the data set on Pyricularia oryzae it was 94%; in the data set on Pyrenophora teres, 95%; with Puccinia recondita, 100%. Moreover, in data set [3] (setting [6]), the LogP was determined as 1.88.
`O=C(CC1CC1)Nc1cc(-c2c(-c3ccc(F)cc3)nn3c2OCCC3)ccn1` [Example 27]: the efficacy is listed as 95% with Sphaerotheca fuliginea; 90% in the data set with Leptosphaeria nodorum; 86% with Fusarium graminearum [4]; 100% in the data set on Septoria tritici; 100% with Pyricularia oryzae; 95% in the data set on Pyrenophora teres. The efficacy in the data set on Puccinia recondita amounted to 100%. Moreover, the LogP in [3] (setting [6]) was determined as 1.69.
For `O=C(CC(F)(F)F)Nc1cc(-c2c(-c3ccc(F)cc3)nn3c2OCCC3)ccn1` [Example 31], the efficacy with Sphaerotheca fuliginea is 88%; in the data set with Fusarium graminearum [4], 86%; in the data set on Uromyces appendiculatus it was 92%; in the data set with Septoria tritici, 100%; with Pyricularia oryzae, 94%; in [5] it was 100%. Also, the figures for the efficacy in the data set with Pyrenophora teres and in the data set on Puccinia recondita were 95% and 100%, respectively. In [3] (setting [6]), this molecule showed a LogP of 2.13.
With `CC(C)(C)CC(=O)Nc1cc(-c2c(-c3ccc(F)cc3)nn3c2OCCC3)ccn1` [Example 34], the efficacy in the data set on Sphaerotheca fuliginea was determined as 95%; with Leptosphaeria nodorum, 90%; with Fusarium graminearum [4], 86%; with Uromyces appendiculatus, 94%; in the data set on Septoria tritici, 88%; with Pyricularia oryzae, 94%. Moreover, the efficacy turned out to be 75% in [5], 100% with Pyrenophora teres and 100% in the data set with Puccinia recondita. In data set [3] (setting [6]), the LogP is 2.04.
Take `CCC(C)C(=O)Nc1cc(-c2c(-c3ccc(F)cc3F)nn3c2OCCC3)ccn1` (centres unmarked) [Example 39]: the efficacy with Sphaerotheca fuliginea worked out at 98%; in the data set on Uromyces appendiculatus, 94%; with Pyricularia oryzae, 94%; in the data set with Pyrenophora teres, 95%; in the data set on Puccinia recondita, 100%. Also, the “Growth inhibition … in %” value in the data set on Fusarium graminearum [1] was 89%. Besides, the “Inhibition of DON/AcDON in %” value in [2] was found to be 99%. In data set [3] (setting [6]), this molecule yielded a LogP of 1.85.
In the case of `CC(C)CC(=O)Nc1cc(-c2c(-c3ccc(F)cc3F)nn3c2OCCC3)ccn1` [Example 40], the efficacy is listed as 98% with Sphaerotheca fuliginea; 94% with Uromyces appendiculatus; 94% in the data set with Pyricularia oryzae; 95% with Pyrenophora teres; 100% with Puccinia recondita. The “Growth inhibition … in %” value in the data set on Fusarium graminearum [1] amounted to 85%. Also, the “Inhibition of DON/AcDON in %” value in [2] came out at 99%. The LogP in [3] (setting [6]) was 1.88.
For the molecule `CSCC(=O)Nc1cc(-c2c(-c3ccc(F)cc3F)nn3c2OCCC3)ccn1` [Example 45], the efficacy in the data set on Sphaerotheca fuliginea worked out at 95%; with Uromyces appendiculatus, 92%; in the data set with Pyricularia oryzae it was 94%; with Pyrenophora teres it was 90%; in the data set on Puccinia recondita it was 90%. For the same molecule, the “Growth inhibition … in %” value in the data set on Fusarium graminearum [1] is recorded as 78%. For the same molecule, the “Inhibition of DON/AcDON in %” value in data set [2] came out at 100%. In data set [3] (setting [6]), this molecule returned a log partition coefficient (LogP) of 1.75.
Turning to `O=C(CC(F)(F)F)Nc1cc(-c2c(-c3ccc(F)cc3F)nn3c2OCCC3)ccn1` [Example 46], the efficacy came out at 86% with Fusarium graminearum [4]; 94% with Uromyces appendiculatus; 88% in the data set on Septoria tritici; 94% in the data set with Pyricularia oryzae; 90% with Pyrenophora teres; 100% with Puccinia recondita. For the same molecule, the LogP in data set [3] (setting [6]) came out at 2.13.
As for `CC(C)(C)CC(=O)Nc1cc(-c2c(-c3ccc(F)cc3F)nn3c2OCCC3)ccn1` [Example 49], the efficacy worked out at 93% with Sphaerotheca fuliginea; 90% in the data set on Leptosphaeria nodorum; 94% with Uromyces appendiculatus; 94% in the data set on Pyricularia oryzae; 95% with Pyrenophora teres; 95% in the data set on Puccinia recondita. Also, the LogP in data set [3] (setting [6]) came out at 2.1.
Take `CC(=O)Nc1cc(-c2c(-c3ccccc3)nn3cccnc23)ccn1` [Example 51, N-[4-(2-phenylpyrazolo[1,5-a]pyrimidin-3-yl)pyridin-2-yl]acetamide]: the inhibition at 50 µM in the data set with Fusarium graminearum [1] (Fusarium graminearum, read-out: Growth inhibition of Fusarium graminearum in %) was found to be 90%; in data set [2] (Fusarium graminearum, read-out: Inhibition of DON/AcDON in %) it was 100%. Also, the chromatographic logP in [3] (Method C (HPLC, reverse phase C18), read-out: LogP) came out at 1.41; in data set [3] (pH 2.7, values in the synthesis examples, HPLC, reverse phase C18, read-out: log P (pH 2.7)), 1.41.
Consider `O=C(Nc1cc(-c2c(-c3ccc(F)cc3)nn3c2OCCC3)ccn1)C(=O)N1CCCCC1` [Example 70], for which the “Growth inhibition … in %” value in the data set with Fusarium graminearum [1] is listed as 76%. Also, the “Inhibition of DON/AcDON in %” value in data set [2] worked out at 90%. The same molecule returned a LogP in data set [3] (setting [6]) of 2.23.
For `CCC(=O)Nc1cc(-c2c(-c3ccc(F)cc3)nn3c2NCCC3)ccn1` [Example 80], the efficacy with Sphaerotheca fuliginea came to 93%; in the data set on Uromyces appendiculatus, 78%; in the data set with Pyricularia oryzae, 90%; in the data set on Pyrenophora teres, 100%. In addition, the “Inhibition of DON/AcDON in %” value in data set [2] turned out to be 100%. Moreover, in data set [3] (setting [7]), the LogP was 1.35.
Turning to `O=C(C1CC1)N(C(=O)C1CC1)c1cc(-c2c(-c3ccc(F)cc3)nn3cccnc23)ccn1` [Example 84], the efficacy in the data set with Sphaerotheca fuliginea came to 88%; with Fusarium graminearum [4], 83%; in the data set on Septoria tritici, 88%; with Pyricularia oryzae it was 90%; in data set [5], 100%; with Pyrenophora teres, 90%. In addition, in [3] (setting [7]), the LogP is reported as 2.94.
With `O=C(Nc1cc(-c2c(-c3ccc(F)cc3)nn3cccnc23)ccn1)C1CC1` [Example 88], the values for the efficacy in the data set with Sphaerotheca fuliginea, with Pyricularia oryzae and in the data set with Pyrenophora teres were 93%, 90% and 95%, respectively. Besides, the “Growth inhibition … in %” value in the data set with Fusarium graminearum [1] is given as 55%. Besides, in data set [2], the “Inhibition of DON/AcDON in %” value worked out at 70%. In data set [3] (setting [7]), this molecule displayed a LogP of 1.75.
In the case of `CC(C)C(=O)N(C(=O)C(C)C)c1cc(-c2c(-c3ccccc3)nn3c2NCCC3)ccn1` [Example 92], the efficacy in the data set with Sphaerotheca fuliginea was found to be 100%; with Uromyces appendiculatus, 78%; in the data set with Puccinia recondita, 78%. Besides, the “Inhibition of DON/AcDON in %” value in [2] was 99%. In [3] (setting [7]), the LogP is recorded as 3.08.
`CC(C)C(=O)Nc1cc(-c2c(-c3ccsc3)nn3c2OC[Si](C)(C)C3)ccn1` [Example 101]: the “Growth inhibition … in %” value in the data set with Fusarium graminearum [1] turned out to be 93%. For the same molecule, the efficacy is 80% with Leptosphaeria nodorum, 75% with Uromyces appendiculatus, 80% with Pyricularia oryzae and 100% in the data set with Pyrenophora teres. The “Inhibition of DON/AcDON in %” value in data set [2] came to 100%. Also, the LogP in data set [3] (setting [7]) was 2.11.

For the origin of these results see patent US9023844B2, “Heterocyclylpyri (mi) dinylpyrazole as fungicidals” (Bayer Intellectual Property GmbH, priority 2011, dated 2015).
